# According to patent US7557144B1, “Modulation of protein expression using carbocyclic aryl alkenoic acid derivatives” (The Johns Hopkins University, priority 2000, dated 2009):
# How the values were obtained:
# [1] = test system: Hsp70; test: Hsp70 immunoblot of IB3-1 lysates; type: cell-based, human; conditions: IB3-1 cells
# Description: (§1) 3. Immunoblot analysis. Whole cell lysates were prepared by solubilization with 2% SDS at 95° C. Protein concentration in the lysates was determined using the Bio-Rad DC assay reagents with bovine plasma g-globulin as a standard (Bio-Rad Laboratories, Hercules, Calif.). Equal amounts of protein was resolved on 5, 7, 8, or 9% SDS-polyacrylamide gels. Proteins were transferred to nitrocellulose, and immunodetection was performed as previously described (25). Nonspecific binding was blocked by incubation of the nitrocellulose with 2% gelatin or 10% nonfat day milk. Primary antisera and secondary antibodies were applied in buffer containing 0.4% BSA overnight at 4° C. and for 1 h at room temperature, respectively. Detection of immunoreactivity was performed with the enhanced chemiluminescence reagent (ECL, Amer-sham) and fluorography. Recombinant bovine Hsc70 ([…]) was purchased from Stressgen Biotechnologies for use in constructing a standard curve of Hsc70 immunoreactivity. Immunoblots containing the bovine Hsc70 were probed with the Hsc70-specific polyclonal antiserum.
# (§2) Whether 4-PBA would regulate expression of a number of other molecular chaperones in IB3-1 cells (FIG. 2) was assessed next. […] Hsp90 is required for correct folding and function of a number of cellular proteins (16). […] Hsp70 (Hsp72) expression is induced by heat shock and the presence of denatured proteins within the eukaryotic cell (16). In Escherichia coli, the Hsp70 homologue DnaK and the Hsp40 homologue DnaJ act to promote protein folding (16). Hdj2 is the member of the Hsp40 family that specifically interacts with and regulates the ATPase activity of Hsc70. Hdj2 also interacts with CFTR during CFTR translation (26).
# FIGS. 2A-2E are more specifically explained as follows. […] IB3-1 cells were treated as described for FIG. 1. Immunoblotting with 5 μg of IB3-1 SDS lysate protein was performed as described in the foregoing General Comments.
# FIGS. 5A-C are explained in more detail as follows. […] A: IB3-1 cells were incubated at 37° C. for 2 days under indicated conditions. Cellular homogenates were prepared in 2% SDS as described in METHODS, and 5 μg of total cellular protein were analyzed by immunoblot for Hsc70 using rabbit polyclonal antiserum, Hsp90, Hsp70, Hsp40 as described above under General Comments. Con, control. B and C: densitometric analysis of Hsc70 expression (B) and Hsp90, Hsp70, and Hsp40 expression (C) was performed as described for FIG. 1. B: means 6 SE of density in 4 independent experiments.
# [2] = test system: CFTR; test: CFTR immunoblot with anti-CFTR antibody 181 in IB3-1 cells; type: cell-based, human; conditions: increasing concentrations of 4-phenylbutyrate (FIG. 14)
# Description: as §1
# Control cells at 37° C. show band B CFTR, but virtually undetectable band C CFTR. These cells as expected show very little Hsp70, the heat shock inducible chaperone. At 27° C., a lower temperature, there is very little Hsp70 as expected, but as expected, there has been induction of band C CFTR.
# [3] = administered 4-PBA; cited from earlier work
# [4] = test system: Hsp40; test: Hsp40 immunoblot of IB3-1 lysates; type: cell-based, human; conditions: IB3-1 cells, increasing concentrations of 4-PBA
# Description: as §1, §2
# FIGS. 2A-2E are more specifically explained as follows. […]
# FIGS. 5A-C are explained in more detail as follows. […] Cellular homogenates were prepared in 2% SDS as described in METHODS, and 5 μg of total cellular protein were analyzed by immunoblot for Hsc70 using rabbit polyclonal antiserum, Hsp90, Hsp70, Hsp40 as described above under General Comments. […]
# [5] = test system: Hsc70 mRNA; test: RNase protection assay of Hsc70 mRNA in IB3-1 cells; type: cell-based, human
# Text: 4. RNase protection. An Hsc70-specific probe for RNase protec-tion was constructed by isolation a 500-bp EcoR I fragment from American Type Culture Collection (ATCC) plasmid 77659 (ATCC, Manassas, Va.) and ligating this fragment into the EcoR I site of pSK(2) (Bluescript, Stratagene, La Jolla, Calif.). The resulting plasmid was sequenced in the Genetics Core Facility at the Johns Hopkins Hospital and found to be identical to sequences in exons 8 and 9 of the human Hsc70 sequence, with sequencing using the T3 primer and T7 primer leading to sense and antisense sequence, respectively. Hybridization probes were synthesized using a Maxiscript T7 kit (Ambion, Austin, Tex.) and [α^32 P]UTP (Amersham or DuPont NEN, Boston, Mass.) according to the Maxiscript protocol. Templates for internal control hybridizations, pTRI-18S and pTRI-cyclophilin A, were purchased from Ambion, and probes were similarly synthesized using the Maxiscript T7 kit. Probes were isolated by acid phenol-chloroform (Ambion) extraction, separated from unincorporated nucleotide by gel filtration (Sephadex G25 RNAspin column, Boehringer-Mannheim), and ethanol-acetate precipitated before resuspension in hybridization buffer. The concentration of radioactivity in the synthesized probes was determined by liquid scintillation.
# RNase protection experiments were performed using the Direct Protect RNase protection assay kit (Ambion) according to the manufacturer's protocol. IB3-1 cell lysates were pre-pared in Direct Protect lysis buffer according to the manufacturer's protocol after incubation under the appropriate conditions for 48 h. Probe (50-70 and 5-10 thousands of counts/min for Hsc70 and control, respectively) and cellular RNA were hybridized overnight at 37° C. and digested with RNase cocktail. Protected fragments were resolved by electrophoresis on 5% acrylamide-8 M urea gels and detected by fluorography. Hsc70 mRNA concentration is expressed relative to control (18S or cyclophilin A) hybridization by densitometry (see Densitometric analysis). Results for hybridization of Hsc70 mRNA relative to the two control species were similar and were therefore grouped for data analysis.
# FIGS. 3A-B are explained in more detailed as follows. Dose-dependent downregulation of Hsc70 mRNA expression by 4-PBA. A: IB3-1 cells were treated as for FIGS. 1 and 2. Hsc70 mRNA and 18S rRNA (as an internal reference) were measured by Direct Protect RNase protection as described under General Comments. […] P values (shown above respective error bars) were determined by 1-way ANOVA in comparison with control.
# FIG. 6 is explained in more detail as follows. […] P values (shown above respective error bars) were determined by 1-way ANOVA in comparison with control.
smiles,measurement,setting,value
"O=C(O)CCCc1ccccc1 [4-PBA, 4-phenylbutyric acid]",expression of Hsp70,[1]; increasing concentrations of 4-PBA (Example 1),did not affect
same,Hsp70 expression,"[1]; increasing concentrations of 4-phenylbutyrate (Example 11, FIG. 14)",induces Hsp70 in a dose-dependent manner
same,band C CFTR,[2],promotes appearance of band C CFTR
same,toxicity,[3],"little toxicity beyond a slightly bitter taste, mild stomach discomfort or mild peripheral edema if severely anemic"
same,expression of Hsp40,[4],did not affect
same,steady-state Hsc70 mRNA levels,"[5]; 4-PBA treatment, relative to 18S rRNA",concentration-dependent decrease
same,"maximum decrease of Hsc70 mRNA, of control expression",[5]; continuous exposure to 5 mM 4-PBA,~50%
